Test results published in PMC8596765 (Clinical Pharmacology in Drug Development, 2021).
Entries after “also recorded” stand apart in the source; their conditions may differ. Like-named read-outs stand apart in the source and are kept apart here.

Columns and labels:
[1] = oral contraceptives, CYP3A substrates; cited from earlier work
HMG‐CoA reductase = conditions: cited from earlier work
[2] = format: in vivo, human (healthy subjects)
Safety monitoring = format: in vivo, human (healthy subjects); conditions: for Tolerability: doses administered alone or in combination, healthy subjects
[3] = cited from earlier work
CYP3A = conditions: upadacitinib 30 mg once daily, healthy subjects; cited from earlier work
[4] = format: in vivo, human (healthy subjects); conditions: for CL/F: N = 12, mean ± SD
[5] = format: in vivo, human (healthy subjects); conditions: for CL/F / Cmax: N = 24, mean ± SD
OATP1B = assay: In vivo transporter inhibition by upadacitinib inferred from statin exposures; set-up: species or system human (healthy subjects); conditions: upadacitinib 30 mg once daily; no increase in rosuvastatin or atorvastatin exposures
BCRP [6] = target: T1, BCRP (Homo sapiens, UniProt Q9UNQ0); assay: as above; set-up: species or system human (healthy subjects); conditions: upadacitinib 30 mg once daily; no increase in rosuvastatin or atorvastatin exposures
T1 sequence (Q9UNQ0 1-655): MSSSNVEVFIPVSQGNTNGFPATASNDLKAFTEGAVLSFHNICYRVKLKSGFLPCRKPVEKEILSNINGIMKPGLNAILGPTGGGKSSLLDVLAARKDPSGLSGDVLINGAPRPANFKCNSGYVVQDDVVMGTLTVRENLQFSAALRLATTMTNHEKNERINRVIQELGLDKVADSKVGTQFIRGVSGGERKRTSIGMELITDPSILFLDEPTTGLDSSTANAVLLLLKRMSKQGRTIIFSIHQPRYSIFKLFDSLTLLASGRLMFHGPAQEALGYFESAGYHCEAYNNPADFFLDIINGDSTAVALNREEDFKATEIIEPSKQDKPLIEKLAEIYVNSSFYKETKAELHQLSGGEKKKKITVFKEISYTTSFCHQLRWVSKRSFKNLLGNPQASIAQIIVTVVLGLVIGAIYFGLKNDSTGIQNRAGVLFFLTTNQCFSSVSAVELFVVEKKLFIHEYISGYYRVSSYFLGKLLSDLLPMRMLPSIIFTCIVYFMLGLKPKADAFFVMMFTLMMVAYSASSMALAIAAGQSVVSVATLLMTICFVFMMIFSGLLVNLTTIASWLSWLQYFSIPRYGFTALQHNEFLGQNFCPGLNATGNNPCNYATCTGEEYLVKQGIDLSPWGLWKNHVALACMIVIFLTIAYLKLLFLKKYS

CYP1A2 = conditions: following upadacitinib dosing in the cocktail drug interaction study; cited from earlier work
CYP2C9 = conditions: following upadacitinib dosing in the cocktail drug interaction study; cited from earlier work
CYP2C19 = conditions: following upadacitinib dosing in the cocktail drug interaction study; cited from earlier work
CYP2D6 = conditions: following upadacitinib dosing in the cocktail drug interaction study; cited from earlier work
P‐glycoprotein = conditions: in vitro assessments; cited from earlier work
[7] = system: breast cancer resistance protein (BCRP); conditions: in vitro assessments; cited from earlier work
BCRP [8] = conditions: in vitro assessments, at clinically relevant concentrations; cited from earlier work
[9] = system: organic anion transporting polypeptide (OATP) 1B1; conditions: in vitro assessments, at clinically relevant concentrations; cited from earlier work
[10] = cited from earlier work; remark: listed apart in the source
[11] = rosuvastatin 5 mg, upadacitinib 30 mg once daily
[12] = atorvastatin 10 mg + upadacitinib 30 mg once daily, period 2 day 7, N = 24
[13] = atorvastatin 10 mg alone, period 1 day 1, N = 24
[14] = atorvastatin 10 mg alone, period 1 day 1, N = 24, mean ± SD
[15] = upadacitinib 30 mg once daily at steady state
[16] = part 2, period 2 day 6, upadacitinib 30 mg once daily alone
[17] = part 2, period 2 day 7, upadacitinib 30 mg once daily + atorvastatin 10 mg single dose

Structure (SMILES): C#C[C@]1(O)CC[C@H]2[C@@H]3CCc4cc(O)ccc4[C@H]3CC[C@@]21C [ethinylestradiol]
- Effect of upadacitinib on plasma exposures [1]: lack of effect; also recorded: no effect

Structure (SMILES): CC(C)c1nc(NS(C)(=O)=O)nc(-c2ccc(F)cc2)c1/C=C/[C@@H](O)C[C@@H](O)CC(=O)O [N‐desmethyl rosuvastatin]
- Inhibitory activity of HMG‐CoA reductase compared to rosuvastatin (HMG‐CoA reductase): minimal inhibitory activity

Structure (SMILES): CC(C)c1nc(N(C)S(C)(=O)=O)nc(-c2ccc(F)cc2)c1/C=C/[C@@H](O)C[C@@H](O)CC(=O)O [rosuvastatin]
- AUC(0-inf) ([2]; human, plasma, oral, 5 mg): 22.8 ± 6.69 ng·h/mL
- AUC(0-t) ([2]; human, plasma, oral, 5 mg): 17.5 ± 6.53 ng·h/mL
- half-life ([2]; human, plasma, oral, 5 mg, t1/2 (arithmetic mean ± standard deviation), rosuvastatin 5 mg alone, period 1 day 1, N = 12): 27.5 h
- Cmax ([2]; human, plasma, po, 5 mg): 1.91 ± 0.699 ng/mL
- Cmax central value ratio (90%CI) ([2]; rosuvastatin 5 mg with upadacitinib 30 mg once daily versus rosuvastatin alone): 0.77
- AUCinf lower when administered with upadacitinib relative to alone [2, 11]: 33%
- Cmax lower when administered with upadacitinib relative to alone [2, 11]: 23%
- Tolerability (Safety monitoring): generally well tolerated
- Intrasubject variability in plasma exposures [3]: ≈ 25%

Structure (SMILES): Cc1ncc2n1-c1ccc(Cl)cc1C(c1ccccc1F)=NC2 [midazolam]
- Decrease in AUC when administered with upadacitinib relative to alone (CYP3A): 26%
- Decrease in Cmax when administered with upadacitinib relative to alone (CYP3A): 26%

Structure (SMILES): CC(C)c1c(C(=O)Nc2ccccc2O)c(-c2ccccc2)c(-c2ccc(F)cc2)n1CC[C@@H](O)C[C@@H](O)CC(=O)O [ortho‐hydroxyatorvastatin]
- t1/2 (arithmetic mean ± standard deviation) [12]: 10.7 ± 2.76 h
- t1/2 (harmonic mean ± pseudo-standard deviation) [12]: 10.0 ± 2.60 h
- t1/2 (arithmetic mean ± standard deviation) [13]: 12.9 ± 5.76 h
- t1/2 (harmonic mean ± pseudo-standard deviation) [13]: 11.1 ± 3.92 h
- Ortho‐hydroxyatorvastatin to atorvastatin AUCinf ratio [14]: 1.39 ± 0.499
- Ortho‐hydroxyatorvastatin to atorvastatin AUCt ratio [14]: 1.33 ± 0.492
- tmax (atorvastatin 10 mg alone, period 1 day 1, N = 24, median (minimum-maximum)): 4.0 (2.0‐8.0) h
- Cmax (atorvastatin 10 mg single dose + upadacitinib 30 mg once daily, period 2 day 7, N = 24, mean ± SD): 1.54 ± 0.610 ng/mL
- Cmax (atorvastatin 10 mg single oral dose alone, period 1 day 1, N = 24, mean ± SD): 1.58 ± 0.716 ng/mL

Structure (SMILES): CC(C)c1c(C(=O)Nc2ccccc2)c(-c2ccccc2)c(-c2ccc(F)cc2)n1CC[C@@H](O)C[C@@H](O)CC(=O)O [atorvastatin]
- Tolerability (Safety monitoring): generally well tolerated

Structure (SMILES): CC[C@@H]1CN(C(=O)NCC(F)(F)F)C[C@@H]1c1cnc2cnc3[nH]ccc3n12 [upadacitinib]
- Effect of upadacitinib on the pharmacokinetics of rosuvastatin ([2]; upadacitinib 30 mg once daily, rosuvastatin 5 mg): no clinically relevant effect
- AUC ([4]; human, plasma, oral, 30 mg): 585 ± 153 ng·h/mL
- Cmax ([4]; human, plasma, oral, 30 mg): 73 ± 23.6 ng/mL
- concentration at 24 h ([4]; human, plasma, oral, 30 mg): 5.17 ± 1.56 ng/mL
- CL/F ([4]; part 1, period 2 day 6, upadacitinib 30 mg once daily alone): 54.6 ± 14.4 L/h
- CL/F ([4]; part 1, period 2 day 7, upadacitinib 30 mg once daily + rosuvastatin 5 mg single dose): 55.9 ± 14.7 L/h
- Effect of single 5‐mg dose of rosuvastatin on upadacitinib Cmax or AUC [4, 15]: no relevant effect
- AUC ([5]; human, plasma, oral, 30 mg): 547 ± 112 ng·h/mL
- concentration at 24 h ([5]; human, plasma, oral, 30 mg): 4.3 ± 1.74 ng/mL
- CL/F [5, 16]: 57.2 ± 12.3 L/h
- Cmax [5, 16]: 76.5 ± 16.1 ng/mL
- CL/F [5, 17]: 58.4 ± 11.7 L/h
- Cmax [5, 17]: 73.2 ± 17.1 ng/mL
- Effect of single 10‐mg dose of atorvastatin on upadacitinib Cmax or AUC [5, 15]: no relevant effect
- Inhibition of OATP1B in vivo (OATP1B): lack of inhibition
- Inhibition of BCRP in vivo (BCRP [6]): lack of inhibition
- Tolerability (Safety monitoring): generally well tolerated
- Patients reporting constipation (grade 1) (Safety monitoring; during treatment with rosuvastatin and upadacitinib, N = 12): 1 patient
- New safety findings (Safety monitoring; upadacitinib alone or with the statins): no new safety findings
- Effect of upadacitinib on the pharmacokinetics of atorvastatin (upadacitinib 30 mg once daily, atorvastatin 10 mg): no clinically relevant effect
- Effect on CYP1A2 activity (CYP1A2): No relevant effects
- Effect on CYP2C9 activity (CYP2C9): No relevant effects
- Effect on CYP2C19 activity (CYP2C19): No relevant effects
- Effect on CYP2D6 activity (CYP2D6): No relevant effects
- Substrate for P‐glycoprotein (P‐glycoprotein): is a substrate
- Substrate for BCRP [7]: is a substrate
- Inhibition of BCRP (BCRP [8]): not expected to inhibit
- Inhibition of OATP1B1 [9]: not expected to inhibit
- Time to steady state ([10]; once‐daily dosing of the extended‐release formulation): ≤ 4 days
- Accumulation in plasma ([10]; repeated once‐daily dosing of the extended‐release formulation): no significant accumulation

Structure (SMILES): C#C[C@]1(O)CC[C@H]2[C@@H]3CCC4=CC(=O)CC[C@@H]4[C@H]3CC[C@@]21CC [levonorgestrel]
- Effect of upadacitinib on plasma exposures [1]: lack of effect; also recorded: no effect
